Measured values as given in publication PMC3269379, “The Host-Pathogen interaction of human cyclophilin A and HIV-1 Vpr requires specific N-terminal and novel C-terminal domains” (BMC Structural Biology, 2011).
“Also recorded” adds a separate entry of the source. Where a SMILES comes first, the peptide text is derived from it.

Key:
CypA [1] = biological target: T1, CypA (Homo sapiens, UniProt P62937); test: SPR binding of Vpr and Vpr peptides to immobilized CypA; settings: for binding to CypA in SPR sensorgrams (in words): peptides 0-8 μM over CM5 chip with 150 RU CypA (Figure 2)
T1 construct: made in house
T1 sequence (P62937 whole entry): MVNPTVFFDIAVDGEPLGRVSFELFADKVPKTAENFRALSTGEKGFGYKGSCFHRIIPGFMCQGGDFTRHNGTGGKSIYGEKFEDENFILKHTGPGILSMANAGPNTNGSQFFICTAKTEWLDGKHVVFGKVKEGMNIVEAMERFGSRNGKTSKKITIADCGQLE
Experimental: SPR [42-44] measurements were performed at 25°C on a Biacore T100 instrument (Biacore AB, Uppsala, Sweden) equipped with CM5 research-grade sensor chips. CypA was immobilized to 150, 180, 918 and 5003 RU, using standard amine-coupling chemistry. The reference flow cells were treated correspondingly except for CypA immobilization. The synthetic full length Vpr, as well as fragments and mutants thereof, were dissolved at four different concentrations in the running buffer (HBS-EP buffer pH 7.4; 10 mM HEPES, 150 mM NaCl, 3.4 mM EDTA and 0.005% surfacant). The samples were injected over the flow cells at a flow rate of 30 μl/min. Data were collected at 2.5 Hz during 60 s association and 180 s or 240 s dissociation phases, and were automatically corrected for bulk buffer effects and non-specific binding of Vpr peptides to the chip matrix. All SPR data was acquired from two individual series of experiments using four different analyte concentrations with a duplicate injection of one of the individual concentrations.
Affinity, association and dissociation rate constants were obtained from sensorgrams by the Biacore T100 evaluation software version 2.0.1 in accordance with the global curve fit model. Sensorgram data for the four different concentrations were fitted to several binding models including 1:1 (Langmuir) binding model (A+B ↔ AB), two-state reaction (conformational change) model (A+B ↔ AB ↔ AB*), heterogeneous ligand (HL) model (interaction one: A+B1 ↔ AB1; interaction two: A+B2 ↔ AB2) and bivalent analyte (BA) model (A+B ↔ AB; AB+B↔ABB). Kinetic constants were calculated for the best fitted model.

CypA [2] = biological target: T1, CypA; test: Isothermal titration calorimetry of Vpr^75-90 binding to CypA; settings: ITC; mean ± S.E of two titrations; read-out: Ka (converted)
Experimental: ITC was performed in a VP-ITC titration calorimeter (MicroCal Inc.). […] The mean of the heat from the last 5 injections was subtracted from the raw data to correct for experimental heat dilution. The binding isotherms were fitted to a one site binding model using the Origin v7 software (OriginLab). Chi-square minimization was performed iteratively to obtain the best-fit parameters.

Compound | binding to CypA in SPR sensorgrams (in words) (CypA [1]) | further results
CC[C@H](C)[C@H](NC(=O)[C@H](CCCNC(=N)N)NC(=O)[C@H](Cc1ccccc1)NC(=O)[C@H](Cc1c[nH]cn1)NC(=O)[C@@H](NC(=O)[C@@H](N)Cc1ccccc1)[C@@H](C)CC)C(=O)NCC(=O)N[C@@H](CS)C(=O)N[C@@H](CCCNC(=N)N)C(=O)N[C@@H](Cc1c[nH]cn1)C(=O)O [Vpr^69-78] (H-FIHFRIGCRH-OH; N-terminus and C-terminus assumed) | interacted only weakly | –
CC[C@H](C)[C@H](NC(=O)[C@H](CCCNC(=N)N)NC(=O)[C@H](CO)NC(=O)[C@H](Cc1c[nH]cn1)NC(=O)[C@H](CCCNC(=N)N)NC(=O)[C@H](CS)NC(=O)CN)C(=O)NCC(=O)N[C@H](C(=O)N[C@H](C(=O)O)[C@@H](C)O)C(C)C [Vpr^75-84] (H-GCRHSRIGVT-OH; N-terminus and C-terminus assumed) | interacted only weakly; also recorded: fails to bind | –
CC[C@H](C)[C@H](NC(=O)CNC(=O)[C@@H](NC(=O)[C@H](C)NC(=O)[C@H](CO)NC(=O)[C@H](Cc1c[nH]cn1)NC(=O)[C@H](CCC(N)=O)NC(=O)[C@H](CS)NC(=O)CN)[C@@H](C)CC)C(=O)N[C@H](C(=O)N[C@@H](CCCNC(=N)N)C(=O)N[C@@H](CCC(N)=O)C(=O)N[C@@H](CCCNC(=N)N)C(=O)N[C@@H](CCCNC(=N)N)C(=O)N[C@@H](C)C(=O)N[C@@H](CCCNC(=N)N)C(=O)O)[C@@H](C)CC [Vpr^75-90 (R76Q, V83I, R80A, T84I)] (H-GCQHSAIGIIRQRRAR-OH) | – | Kd (CypA [1]): 2.7 ± 1.9 µM
CC[C@H](C)[C@H](NC(=O)CNC(=O)[C@@H](NC(=O)[C@H](CCCNC(=N)N)NC(=O)[C@H](CO)NC(=O)[C@H](Cc1c[nH]cn1)NC(=O)[C@H](CCC(N)=O)NC(=O)[C@H](CS)NC(=O)CN)[C@@H](C)CC)C(=O)N[C@H](C(=O)N[C@@H](CCCNC(=N)N)C(=O)N[C@@H](CCC(N)=O)C(=O)N[C@@H](CCCNC(=N)N)C(=O)N[C@@H](CCCNC(=N)N)C(=O)N[C@@H](C)C(=O)N[C@@H](CCCNC(=N)N)C(=O)O)[C@@H](C)CC [Vpr^75-90 (R76Q, V83I, T84I)] (H-GCQHSRIGIIRQRRAR-OH) | – | Kd (CypA [1]): 4.7 ± 2.6 µM
CC[C@H](C)[C@H](NC(=O)[C@H](CCCNC(=N)N)NC(=O)[C@H](CO)NC(=O)[C@H](Cc1c[nH]cn1)NC(=O)[C@H](CCCNC(=N)N)NC(=O)[C@H](CS)NC(=O)CN)C(=O)NCC(=O)N[C@H](C(=O)N[C@H](C(=O)N[C@@H](CCCNC(=N)N)C(=O)N[C@@H](CCC(N)=O)C(=O)N[C@@H](CCCNC(=N)N)C(=O)N[C@@H](CCCNC(=N)N)C(=O)N[C@@H](C)C(=O)N[C@@H](CCCNC(=N)N)C(=O)O)[C@@H](C)O)C(C)C [Vpr^75-90] | – | Kd (CypA [2]): 76.9 nM
CC[C@H](C)[C@H](N)C(=O)NCC(=O)N[C@H](C(=O)N[C@H](C(=O)N[C@@H](CCCNC(=N)N)C(=O)N[C@@H](CCC(N)=O)C(=O)N[C@@H](CCCNC(=N)N)C(=O)N[C@@H](CCCNC(=N)N)C(=O)N[C@@H](C)C(=O)N[C@@H](CCCNC(=N)N)C(=O)O)[C@@H](C)O)C(C)C [Vpr^81-90] (H-IGVTRQRRAR-OH; N-terminus and C-terminus assumed) | interacted only weakly | –
C[C@H](NC(=O)CNC(=O)[C@H](CC(N)=O)NC(=O)[C@H](CCCNC(=N)N)NC(=O)[C@H](C)NC(=O)[C@H](CCCNC(=N)N)NC(=O)[C@@H](N)CCCNC(=N)N)C(=O)N[C@@H](CO)C(=O)N[C@@H](CCCNC(=N)N)C(=O)N[C@@H](CO)C(=O)O [Vpr^87-96] (H-RRARNGASRS-OH; N-terminus and C-terminus assumed) | interacted only weakly | –
Vpr^30-40: N-terminal peptide containing the N-terminal binding region of Vpr to CypA (AVRHFPRIWLH) | – | binding to CypA in SPR sensorgrams, comparison (in words) (CypA [1]; analyte 1-8 μM, chip with 180 RU CypA (Figure 1B, C)): lower affinity
